In US20260241046A1, “PROSTATE-SPECIFIC MEMBRANE ANTIGEN RECEPTOR-TARGETING RADIOPHARMACEUTICALS AND USES THEREOF” (Nuclidium AG, priority 2024, published 2026):

Molecular target: T1, PSMA-positive malignant lesions (Homo sapiens, UniProt Q04609)
T1 construct: from tissue; host or cells: prostate cancer lesions (bone and nodal metastases, prostate) of eight trial subjects
Assay: Human clinical trial, PET/CT comparison between Pylarify and [^61Cu]Cu-NODAGA-PSMA I&T
Format: in vivo
Description: This is a phase I, single center, non-randomized trial with 6-10 subjects. Each subject will have biopsy-proven prostate cancer visualized on FDA-approved ^18F-piflufolastat PET/CT performed within 3 weeks of trial recruitment. Each subject will receive a single administration of [^61Cu]Cu-NODAGA-PSMA I&T, followed by PET/CT imaging. Safety of [^61Cu]Cu-NODAGA-PSMA I&T will be evaluated by monitoring for unlikely adverse effects.
Subjects will undergo administration of 10 mL of 100-300 MBq (2.7-8.1 mCi) [^61Cu]Cu-NODAGA-PSMA I&T composition intravenously described in Table 20, followed by PET/CT imaging 60 (+/−10) minutes post radiotracer administration.
• Perform and record vital signs. • Place IV catheter. • Obtain blood for whole blood and plasma radioactivity counts prior to radiotracer administration and at 3-5 time points post radiotracer administration, from the following time ranges • a. 15 minutes (+/−10 minutes) • b. 30 minutes (+/−10 minutes) • c. 60 minutes (+/−15 minutes) • d. 120-240 minutes • e. 240-420 minutes • Administer 100-300 MBq ([…]) of [^61Cu]Cu-NODAGA-PSMA I&T composition intravenously. • Perform and record vital signs and assess for adverse reactions 30-60 minutes and 120-240 minutes post radiotracer administration. • Perform PET/CT imaging at 2 or 3 time points post radiotracer administration, from the following time ranges. • a. 60 minutes (+/−15 minutes) • b. 120-240 minutes • c. 240-420 minutes • Perform and record vital signs and assess for adverse reactions 120 (+/−10 minutes) post radiotracer administration. Visit 3—Day after Phone Call • Record any adverse reactions.
For the secondary objective of effectiveness, the number of suspected PSMA-positive malignant lesions will be calculated in both the standard-of-care ^18F-Piflufolastat PET/CT and the experimental [^61Cu]Cu-NODAGA-PSMA I&T PET/CT. The percentage of patients with any suspected PSMA-positive malignant lesions will be determined for each radiotracer. To assess whether the distribution of the number of lesions was higher with ^18F-Piflufolastat PET/CT or [^61Cu]Cu-NODAGA-PSMA I&T, 1-sided Wilcoxon […] tests for paired data will be performed. To account for the small sample size, results with a P value of less than 0.1 will be considered statistically significant.

T1 sequence (Q04609 whole entry): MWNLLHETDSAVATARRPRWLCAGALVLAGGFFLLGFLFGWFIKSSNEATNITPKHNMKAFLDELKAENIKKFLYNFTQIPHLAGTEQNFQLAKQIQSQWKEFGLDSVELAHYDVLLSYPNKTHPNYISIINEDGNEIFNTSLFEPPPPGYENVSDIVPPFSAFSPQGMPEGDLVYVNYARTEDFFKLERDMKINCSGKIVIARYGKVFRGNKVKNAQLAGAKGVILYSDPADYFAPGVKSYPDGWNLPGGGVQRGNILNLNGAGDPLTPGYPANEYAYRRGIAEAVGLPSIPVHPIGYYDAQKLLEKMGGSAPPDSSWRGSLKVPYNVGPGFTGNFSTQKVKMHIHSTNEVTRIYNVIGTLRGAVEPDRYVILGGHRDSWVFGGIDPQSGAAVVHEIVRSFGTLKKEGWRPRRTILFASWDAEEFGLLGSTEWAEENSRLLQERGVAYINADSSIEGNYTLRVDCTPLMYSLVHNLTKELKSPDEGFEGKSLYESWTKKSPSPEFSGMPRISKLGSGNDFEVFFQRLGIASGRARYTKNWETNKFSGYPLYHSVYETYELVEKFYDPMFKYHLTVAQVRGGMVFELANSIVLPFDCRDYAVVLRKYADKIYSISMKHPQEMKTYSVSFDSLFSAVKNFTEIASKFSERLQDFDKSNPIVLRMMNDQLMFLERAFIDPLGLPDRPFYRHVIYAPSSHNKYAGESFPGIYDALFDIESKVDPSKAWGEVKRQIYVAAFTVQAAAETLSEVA

O=C([O-])CN1CCN(CC(=O)[O-])CCN([C@H](CCC(=O)N[C@H](Cc2ccc(O)c(I)c2)C(=O)N[C@H](Cc2ccccc2)C(=O)N[C@H](CCCCNC(=O)CCCCCCC(=O)NCCCC[C@H](NC(=O)N[C@@H](CCC(=O)O)C(=O)O)C(=O)O)C(=O)O)C(=O)O)CC1.[61Cu+2] [[^61Cu]Cu-NODAGA-PSMA I&T]
Concordance (Subject 1): 100%
% difference from Pylarify results at 1 hour (Subject 1, 1 hour): (12%)
New Lesions Detected with [^61Cu]Cu-NODAGA-PSMA I&T (Subject 1, 1 hour): 5
Tumor-to-Background Ratio with [^61Cu]Cu-NODAGA-PSMA I&T (Subject 1, 1 hour): 59.9
% difference from Pylarify results at 1 hour (Subject 1, 2 hour): (115%)
New Lesions Detected with [^61Cu]Cu-NODAGA-PSMA I&T (Subject 1, 2 hour): 7
Tumor-to-Background Ratio with [^61Cu]Cu-NODAGA-PSMA I&T (Subject 1, 2 hour): 114.5
% difference from Pylarify results at 1 hour (Subject 1, 4 hour): (154%)
New Lesions Detected with [^61Cu]Cu-NODAGA-PSMA I&T (Subject 1, 4 hour): 8
Tumor-to-Background Ratio with [^61Cu]Cu-NODAGA-PSMA I&T (Subject 1, 4 hour): 135.5
Concordance (Subject 2): 100%
% difference from Pylarify results at 1 hour (Subject 2, 1 hour): (37%)
New Lesions Detected with [^61Cu]Cu-NODAGA-PSMA I&T (Subject 2, 1 hour): 0
Tumor-to-Background Ratio with [^61Cu]Cu-NODAGA-PSMA I&T (Subject 2, 1 hour): 5.3
% difference from Pylarify results at 1 hour (Subject 2, 2 hour): (−13%)
New Lesions Detected with [^61Cu]Cu-NODAGA-PSMA I&T (Subject 2, 2 hour): 0
Tumor-to-Background Ratio with [^61Cu]Cu-NODAGA-PSMA I&T (Subject 2, 2 hour): 3.4
% difference from Pylarify results at 1 hour (Subject 2, 4 hour): (−43%)
New Lesions Detected with [^61Cu]Cu-NODAGA-PSMA I&T (Subject 2, 4 hour): 0
Tumor-to-Background Ratio with [^61Cu]Cu-NODAGA-PSMA I&T (Subject 2, 4 hour): 2.2
Concordance (Subject 3): 100%
% difference from Pylarify results at 1 hour (Subject 3, 1 hour): (52%)
New Lesions Detected with [^61Cu]Cu-NODAGA-PSMA I&T (Subject 3, 1 hour): 1
Tumor-to-Background Ratio with [^61Cu]Cu-NODAGA-PSMA I&T (Subject 3, 1 hour): 9.3
% difference from Pylarify results at 1 hour (Subject 3, 2 hour): (9%)
New Lesions Detected with [^61Cu]Cu-NODAGA-PSMA I&T (Subject 3, 2 hour): 1
Tumor-to-Background Ratio with [^61Cu]Cu-NODAGA-PSMA I&T (Subject 3, 2 hour): 6.7
% difference from Pylarify results at 1 hour (Subject 3, 4 hour): (274%)
New Lesions Detected with [^61Cu]Cu-NODAGA-PSMA I&T (Subject 3, 4 hour): 3
Tumor-to-Background Ratio with [^61Cu]Cu-NODAGA-PSMA I&T (Subject 3, 4 hour): 23.0
Concordance (Subject 4): 100%
% difference from Pylarify results at 1 hour (Subject 4, 1 hour): (64%)
New Lesions Detected with [^61Cu]Cu-NODAGA-PSMA I&T (Subject 4, 1 hour): 0
Tumor-to-Background Ratio with [^61Cu]Cu-NODAGA-PSMA I&T (Subject 4, 1 hour): 126.2
% difference from Pylarify results at 1 hour (Subject 4, 2 hour): (110%)
New Lesions Detected with [^61Cu]Cu-NODAGA-PSMA I&T (Subject 4, 2 hour): 2
Tumor-to-Background Ratio with [^61Cu]Cu-NODAGA-PSMA I&T (Subject 4, 2 hour): 161.4
% difference from Pylarify results at 1 hour (Subject 4, 4 hour): (98%)
New Lesions Detected with [^61Cu]Cu-NODAGA-PSMA I&T (Subject 4, 4 hour): 10
Tumor-to-Background Ratio with [^61Cu]Cu-NODAGA-PSMA I&T (Subject 4, 4 hour): 152.8
Concordance (Subject 5): 100%
% difference from Pylarify results at 1 hour (Subject 5, 1 hour): (98%)
New Lesions Detected with [^61Cu]Cu-NODAGA-PSMA I&T (Subject 5, 1 hour): 0
Tumor-to-Background Ratio with [^61Cu]Cu-NODAGA-PSMA I&T (Subject 5, 1 hour): 53.3
% difference from Pylarify results at 1 hour (Subject 5, 2 hour): (154%)
New Lesions Detected with [^61Cu]Cu-NODAGA-PSMA I&T (Subject 5, 2 hour): 0
Tumor-to-Background Ratio with [^61Cu]Cu-NODAGA-PSMA I&T (Subject 5, 2 hour): 68.3
% difference from Pylarify results at 1 hour (Subject 5, 4 hour): (160%)
New Lesions Detected with [^61Cu]Cu-NODAGA-PSMA I&T (Subject 5, 4 hour): 0
Tumor-to-Background Ratio with [^61Cu]Cu-NODAGA-PSMA I&T (Subject 5, 4 hour): 70.0
Concordance (Subject 6): 100%
% difference from Pylarify results at 1 hour (Subject 6, 1 hour): (60%)
New Lesions Detected with [^61Cu]Cu-NODAGA-PSMA I&T (Subject 6, 1 hour): 0
Tumor-to-Background Ratio with [^61Cu]Cu-NODAGA-PSMA I&T (Subject 6, 1 hour): 11.3
% difference from Pylarify results at 1 hour (Subject 6, 2 hour): (126%)
New Lesions Detected with [^61Cu]Cu-NODAGA-PSMA I&T (Subject 6, 2 hour): 0
Tumor-to-Background Ratio with [^61Cu]Cu-NODAGA-PSMA I&T (Subject 6, 2 hour): 16.0
% difference from Pylarify results at 1 hour (Subject 6, 4 hour): (230%)
New Lesions Detected with [^61Cu]Cu-NODAGA-PSMA I&T (Subject 6, 4 hour): 0
Tumor-to-Background Ratio with [^61Cu]Cu-NODAGA-PSMA I&T (Subject 6, 4 hour): 23.3
Concordance (Subject 7): 100%
% difference from Pylarify results at 1 hour (Subject 7, 1 hour): (45%)
New Lesions Detected with [^61Cu]Cu-NODAGA-PSMA I&T (Subject 7, 1 hour): 3
Tumor-to-Background Ratio with [^61Cu]Cu-NODAGA-PSMA I&T (Subject 7, 1 hour): 5.6
% difference from Pylarify results at 1 hour (Subject 7, 2 hour): (70%)
New Lesions Detected with [^61Cu]Cu-NODAGA-PSMA I&T (Subject 7, 2 hour): 3
Tumor-to-Background Ratio with [^61Cu]Cu-NODAGA-PSMA I&T (Subject 7, 2 hour): 6.6
% difference from Pylarify results at 1 hour (Subject 7, 4 hour): (287%)
New Lesions Detected with [^61Cu]Cu-NODAGA-PSMA I&T (Subject 7, 4 hour): 5
Tumor-to-Background Ratio with [^61Cu]Cu-NODAGA-PSMA I&T (Subject 7, 4 hour): 15.0
Concordance (Subject 8): 100%
% difference from Pylarify results at 1 hour (Subject 8, 1 hour): (−10%)
New Lesions Detected with [^61Cu]Cu-NODAGA-PSMA I&T (Subject 8, 1 hour): 0
Tumor-to-Background Ratio with [^61Cu]Cu-NODAGA-PSMA I&T (Subject 8, 1 hour): 24.2
% difference from Pylarify results at 1 hour (Subject 8, 2 hour): (29%)
New Lesions Detected with [^61Cu]Cu-NODAGA-PSMA I&T (Subject 8, 2 hour): 0
Tumor-to-Background Ratio with [^61Cu]Cu-NODAGA-PSMA I&T (Subject 8, 2 hour): 34.5
% difference from Pylarify results at 1 hour (Subject 8, 4 hour): (123%)
New Lesions Detected with [^61Cu]Cu-NODAGA-PSMA I&T (Subject 8, 4 hour): 0
Tumor-to-Background Ratio with [^61Cu]Cu-NODAGA-PSMA I&T (Subject 8, 4 hour): 59.7
metastases visualized compared with Pylarify PET/CT (Subject #1): More osseous metastases were visualized
metastases visualized compared with Pylarify PET/CT (Subject #2): Same number of metastases were observed
pelvic nodal metastases seen on PET/CT (Subject #3, 4 hours): 5
metastases visualized compared with Pylarify PET/CT (Subject #4): More osseous metastases were observed
metastases visualized compared with Pylarify PET/CT (Subject #5): Equal number of osseous metastases were observed
metastases visualized compared with Pylarify PET/CT (Subject #6): One avid 0.4 cm left pelvic sidewall lymph node seen on both
metastases visualized compared with Pylarify PET/CT (Subject #7): More osseous metastases were detected
metastases visualized compared with Pylarify PET/CT (Subject #8): Solitary avid osseous metastasis were observed in both exams
detection rate of metastatic lesions compared with Pylarify (eight subjects): higher detection rate of metastatic lesions
higher tumor-to-background ratio than Pylarify, on average (eight subjects): 90%
